The test system of series [1] is Peripheral blood mononuclear cells (PBMC). Put plainly: Cytokine Induction in Human Cells (in vitro human blood cell system, IFN and TNF secreted into culture media). It counts as cell-based. Also on record: key to Lowest Effective Concentration (μM) Tumor Necrosis Factor / Lowest Effective Concentration (μM) Interferon: *: no induction was seen at any of the tested concentrations. The settings on record: 18 to 24 hours, tested 30-0.014 μM; for minimal effective concentration: Homo sapiens, PBMC. From the text: An in vitro human blood cell system is used to assess cytokine induction. Activity is based on the measurement of interferon and tumor necrosis factor (α) (IFN and TNF, respectively) secreted into culture media as described by Testerman et. al. In “Cytokine Induction by the Immunomodulators Imiquimod and S-27609”, Journal of Leukocyte Biology, 58, 365-372 (September, 1995).
Whole blood from healthy human donors is collected by venipuncture into EDTA vacutainer tubes. Peripheral blood mononuclear cells (PBMC) are separated from whole blood by density gradient centrifugation using Histopaque®-1077. Blood is diluted 1:1 with Dulbecco's Phosphate Buffered Saline (DPBS) or Hank's Balanced Salts Solution (HBSS). The PBMC layer is collected and washed twice with DPBS or HBSS and resuspended at 4×10^6 cells/mL in RPMI complete. The PBMC suspension is added to 48 well flat bottom sterile tissue culture plates (Costar, Cambridge, Mass. or Becton Dickinson Labware, Lincoln Park, N.J.) containing an equal volume of RPMI complete media containing test compound.
The compounds are solubilized in dimethyl sulfoxide (DMSO). The DMSO concentration should not exceed a final concentration of 1% for addition to the culture wells. The compounds are generally tested at concentrations ranging from 30-0.014 μM.
The solution of test compound is added at 60 μM to the first well containing RPMI complete and serial 3 fold dilutions are made in the wells. The PBMC suspension is then added to the wells in an equal volume, bringing the test compound concentrations to the desired range (30-0.014 μM). The final concentration of PBMC suspension is 2×10^6 cells/mL. The plates are covered with sterile plastic lids, mixed gently and then incubated for 18 to 24 hours at 37° C. in a 5% carbon dioxide atmosphere.
Following incubation the plates are centrifuged for 10 minutes at 1000 rpm (˜200×g) at 4° C. The cell-free culture supernatant is removed with a sterile polypropylene pipet and transferred to sterile polypropylene tubes. Samples are maintained at −30 to −70° C. until analysis. The samples are analyzed for interferon (α) by ELISA and for tumor necrosis factor (α) by ELISA or IGEN Assay.
Interferon (α) concentration is determined by ELISA using a Human Multi-Species kit from PBL Biomedical Laboratories, New Brunswick, N.J. Results are expressed in pg/mL.
Tumor necrosis factor (α) (TNF) concentration is determined using ELISA kits available from Biosource International, Camarillo, Calif. Alternately, the TNF concentration can be determined by Origen® M-Series Immunoassay and read on an IGEN M-8 analyzer from IGEN International, Gaithersburg, Md. The immunoassay uses a human TNF capture and detection antibody pair from Biosource International, Camarillo, Calif. Results are expressed in pg/mL.
The table below lists the lowest concentration found to induce interferon and the lowest concentration found to induce tumor necrosis factor for each compound.

The mark [2] stands for this setting: lowest concentration found to induce interferon (α), ELISA, read-out: Lowest Effective Concentration (μM) Interferon.
Where [3] appears, read: lowest concentration found to induce tumor necrosis factor (α), ELISA or IGEN assay.
The mark [4] stands for this setting: lowest concentration found to induce tumor necrosis factor (α), ELISA or IGEN assay, read-out: Lowest Effective Concentration (μM) Tumor Necrosis Factor.
The mark [5] stands for this setting: lowest concentration found to induce interferon (α), ELISA.

Structures can show the parent of a compound that is named as a salt. Where two headings read alike, the source gives them in different places.

These results are taken from US6989389B2, “Aryl ether substituted imidazoquinolines” (3M Innovative Properties Co., priority 2000, dated 2006).

On to `CC(C)c1ccccc1C#CCOCCn1cnc2c(N)nc3ccccc3c21` (as salt: hydrochloride) [Example 7, 1-(2-{[3-(2-Isopropylphenyl)-2-propynyl]oxy}ethyl)-1H-imidazo[4,5-c]quinolin-4-amine Hydrochloride], for which the melting point lay in the range of 239 to 241 °C.

`CCOCc1nc2c(N)nc3ccccc3c2n1CCOCCCc1ccccc1` (as salt: hydrochloride) [Example 16, 2-(Ethoxymethyl)-1-[2-(3-phenylpropoxy)ethyl]-1H-imidazo[4,5-c]quinolin-4-amine Hydrochloride] returned a melting point of 128 to 134 °C. With `Nc1nc2ccccc2c2c1ncn2COCCOc1ccc([N+](=O)[O-])cc1` [Example 83], in series [1] (setting [2]), the minimal effective concentration is 0.37 µM. Also, the “Lowest Effective Concentration (μM) Tumor Necrosis Factor” value in series [1] (setting [3]) was “*”. For the compound `Nc1nc2ccccc2c2c1ncn2COCCOCc1ccccc1` [Example 84], the minimal effective concentration in series [1] (setting [2]) amounted to 0.37 µM. The “Lowest Effective Concentration (μM) Tumor Necrosis Factor” value in series [1] (setting [3]) is “*”. Turning to `Cc1ccc(COCCOCn2cnc3c(N)nc4ccccc4c32)cc1` [Example 85], in series [1] (setting [2]), the minimal effective concentration came out at 0.37 µM. In series [1] (setting [3]), the “Lowest Effective Concentration (μM) Tumor Necrosis Factor” value is “*”. The corresponding values for `Cc1cccc(COCCOCn2cnc3c(N)nc4ccccc4c32)c1` [Example 86] are 0.37 µM and “*”. As for `N#Cc1ccc(COCCOCn2cnc3c(N)nc4ccccc4c32)cc1` [Example 87], the minimal effective concentration in series [1] (setting [2]) worked out at 1.11 µM. Besides, the “Lowest Effective Concentration (μM) Tumor Necrosis Factor” value in series [1] (setting [3]) is “*”. In the case of `N#Cc1cccc(COCCOCn2cnc3c(N)nc4ccccc4c32)c1` [Example 88], the minimal effective concentration in series [1] (setting [2]) turned out to be 0.37 µM; in series [1] (setting [4]), 30 µM. On to `CCCCc1nc2c(N)nc3c(c2n1CCOCc1cccc(Cl)c1)CCCC3` [Example 89], for which the minimal effective concentration in series [1] (setting [2]) amounted to 0.37 µM; in series [1] (setting [4]), 10 µM. For `CCCCc1nc2c(N)nc3c(c2n1CCOCc1ccc(C)cc1)CCCC3` [Example 90], in that order: 0.12 µM and 10 µM. For `CCCCc1nc2c(N)nc3c(c2n1CCOCc1ccc(C(F)(F)F)cc1)CCCC3` [Example 91], in that order: 0.37 µM and 10 µM. For `CCCCc1nc2c(N)nc3c(c2n1CCOCc1cccc(C(F)(F)F)c1)CCCC3` [Example 92], in that order: 3.33 µM and 3.33 µM. On to `CCCCc1nc2c(N)nc3c(c2n1CCOCc1ccc(C#N)cc1)CCCC3` [Example 93], for which the values for the minimal effective concentration in series [1] (setting [2]) and in series [1] (setting [4]) were 0.12 µM and 10 µM, respectively.

For the compound `CCCCc1nc2c(N)nc3c(c2n1CCOCc1cccc(C#N)c1)CCCC3` [Example 94], the minimal effective concentration in series [1] (setting [2]) worked out at 0.01 µM; in series [1] (setting [4]), 3.33 µM. Turning to `CCCCc1nc2c(N)nc3c(c2n1CCOCc1ccc(C(C)(C)C)cc1)CCCC3` [Example 95], the minimal effective concentration in series [1] (setting [2]) amounted to 1.11 µM. The “Lowest Effective Concentration (μM) Tumor Necrosis Factor” value in series [1] (setting [3]) is “*”.

Turning to `CC(Cn1cnc2c(N)nc3ccccc3c21)Oc1ccccc1C#N` (stereo not drawn) [Example 97], the minimal effective concentration in series [1] (setting [2]) is 1.11 µM. Besides, the “Lowest Effective Concentration (μM) Tumor Necrosis Factor” value in series [1] (setting [3]) was “*”.

Consider `CC(Cn1cnc2c(N)nc3ccccc3c21)Oc1ccc(-n2ccnc2)cc1` (stereo not drawn) [Example 98], for which, in series [1] (setting [2]), the minimal effective concentration stood at 0.37 µM. Moreover, in series [1] (setting [3]), the “Lowest Effective Concentration (μM) Tumor Necrosis Factor” value is given as “*”. For `COc1ccc(OC(C)Cn2cnc3c(N)nc4ccccc4c32)cc1` (stereo not drawn) [Example 99], in that order: 0.37 µM and “*”. Take `CC(Cn1cnc2c(N)nc3ccccc3c21)Oc1ccc(C(C)(C)CC(C)(C)C)cc1` (stereo not drawn) [Example 100]: in series [1] (setting [5]), the “Lowest Effective Concentration (μM) Interferon” value is listed as “*”. For the same compound, in series [1] (setting [3]), the “Lowest Effective Concentration (μM) Tumor Necrosis Factor” value was “*”.

For `CCC(COc1ccc(-n2ccnc2)cc1)n1cnc2c(N)nc3ccccc3c21` (stereo not drawn) [Example 101], the minimal effective concentration was determined as 0.04 µM in series [1] (setting [2]) and 10 µM in series [1] (setting [4]).

As to `CCC(COc1ccccc1C#N)n1cnc2c(N)nc3ccccc3c21` (stereo not drawn) [Example 102], the minimal effective concentration in series [1] (setting [2]) stood at 0.37 µM. Besides, in series [1] (setting [3]), the “Lowest Effective Concentration (μM) Tumor Necrosis Factor” value is given as “*”.

As to `CCC(COc1ccc(C(C)(C)CC(C)(C)C)cc1)n1cnc2c(N)nc3ccccc3c21` (stereo not drawn) [Example 103], the minimal effective concentration in series [1] (setting [4]) came out at 10 µM. Moreover, the “Lowest Effective Concentration (μM) Interferon” value in series [1] (setting [5]) is “*”. On to `CCC(COc1ccc(NC(C)=O)cc1)n1cnc2c(N)nc3ccccc3c21` (stereo not drawn) [Example 104], for which the minimal effective concentration in series [1] (setting [2]) was found to be 0.12 µM; in series [1] (setting [4]), 10 µM. `Nc1nc2ccccc2c2c1ncn2CCOc1ccccc1` [Example 105, 1-(2-Phenoxyethyl)-1H-imidazo[4,5-c]quinolin-4-amine]: the minimal effective concentration was found to be 0.37 µM in series [1] (setting [2]) and 1.11 µM in series [1] (setting [4]). As to `CCC(COc1ccccc1)n1cnc2c(N)nc3ccccc3c21` (stereo not drawn) [Example 106, 1-[(1-Phenoxymethyl)propyl]-1H-imidazo[4,5-c]quinolin-4-amine], the minimal effective concentration in series [1] (setting [2]) came to 0.37 µM. Also, the “Lowest Effective Concentration (μM) Tumor Necrosis Factor” value in series [1] (setting [3]) is “*”. For the compound `CC[C@H](COCCCc1ccccc1)n1cnc2c(N)nc3ccccc3c21` [Example 109, 1-{(1R)-1-[(3-Phenylpropoxy)methyl]propyl}-1H-imidazo[4,5-c]quinolin-4-amine], the minimal effective concentration was found to be 0.01 µM in series [1] (setting [2]) and 0.37 µM in series [1] (setting [4]).

Turning to `C[C@@H](COCc1ccc(C#N)cc1)Cn1cnc2c(N)nc3ccccc3c21` [Example 110], the minimal effective concentration in series [1] (setting [2]) turned out to be 3.33 µM. Besides, in series [1] (setting [3]), the “Lowest Effective Concentration (μM) Tumor Necrosis Factor” value is reported as “*”. The corresponding values for `C[C@@H](COCc1ccc(C(C)(C)C)cc1)Cn1cnc2c(N)nc3ccccc3c21` [Example 111] are 3.33 µM and “*”. As for `C[C@@H](COCc1cccc(Cl)c1)Cn1cnc2c(N)nc3ccccc3c21` [Example 112], the “Lowest Effective Concentration (μM) Interferon” value in series [1] (setting [5]) is “*”. In addition, in series [1] (setting [3]), the “Lowest Effective Concentration (μM) Tumor Necrosis Factor” value is “*”.

On to `CN(C)c1ccc(CCCOCCn2cnc3c(N)nc4ccccc4c32)cc1` [Example 114, 1-(2-{3-[4-(Dimethylamino)phenyl]propoxy}ethyl)-1H-imidazo[4,5-c]quinolin-4-amine], for which the minimal effective concentration in series [1] (setting [2]) worked out at 0.12 µM; in series [1] (setting [4]) it was 0.37 µM. For `Cc1nc2c(N)nc3ccccc3c2n1CCOCC#Cc1ccccc1` [Example 118, 2-Methyl-1-{2-[(3-phenylprop-2-ynyl)oxy]ethyl}-1H-imidazo[4,5-c]quinolin-4-amine], in that order: 0.01 µM and 0.04 µM.

Consider `CC[C@H](COCc1ccc(C#N)cc1)n1cnc2c(N)nc3ccccc3c21` [Example 142, 4-({[(2R)-2-(4-Amino-1H-imidazo[4,5-c]quinolin-1-yl)butyl]oxy}methyl)benzonitrile], for which the minimal effective concentration in series [1] (setting [2]) and in series [1] (setting [4]) was 0.04 µM each time. With `CC[C@@H](COCc1ccc(C#N)cc1)n1cnc2c(N)nc3ccccc3c21` [Example 143, 4-({[(2S)-2-(4-Amino-1H-imidazo[4,5-c]quinolin-1-yl)butyl]oxy}methyl)benzonitrile], the minimal effective concentration was determined as 1.11 µM in series [1] (setting [2]) and 3.33 µM in series [1] (setting [4]). For `C#CCOCCn1c(CCOC)nc2c(N)nc3ccccc3c21` [Example 144, 2-(2-Methoxyethyl)-1-[2-(prop-2-ynyloxy)ethyl]-1H-imidazo[4,5-c]quinolin-4-amine], in that order: 0.01 µM and 0.04 µM.

As usually defined, the melting point is the temperature, or range, at which the solid turns liquid.
